Experimental data from US7192940B2, “Ether compounds” (Esperion Therapeutics, Inc., priority 1999, dated 2007).

How the values were obtained:
male Sprague-Dawley rats = assay: Serum lipids, apolipoproteins and weight gain in chow-fed male Sprague-Dawley rats after seven days of oral treatment; assay type: in vivo, rat; details: 100 mg/kg, 7 days, vs vehicle
Procedure: Illustrative compounds of the invention were administered daily at a dose of 100 mg/kg to chow fed male Sprague-Dawley rats for seven days in the morning by oral gavage in 1.5% carboxymethylcellulose/0.2% Tween-20 (dosing vehicle). Animals were weighed daily. Animals were allowed free access to rodent chow and water throughout the study. After the seventh dose, animals were sacrificed in the evening and blood serum was assayed for lipoprotein cholesterol profiles, serum triglycerides, total cholesterol VLDL, LDL, and HDL cholesterol, and the ratio of HDL cholesterol to that of VLDL plus LDL cholesterol, apolipoproteins A-I, C-II, C-III, and E by immunoelectrophoresis, and percent weight gain.
The five compounds were tested in two separate experiments. In each experiment, the experimental data were normalized against a control group of rats which received the dosing vehicle alone.

obese female Zucker rats [1] = assay: Experiment A: serum lipids, glucose, non-esterified fatty acids and weight gain in obese female Zucker rats after seven days of oral treatment; assay type: in vivo, rat; details: vehicle 6.6%
Procedure: Dosing vehicle, Compound A (86 mg/kg of body weight) or troglitazone (120 mg/kg of body weight) was administered to eight week old female obese Zucker rats daily for seven days in the morning by oral gavage in 1.5% carboxymethylcellulose/0.2% Tween-20. Troglitazone was obtained commercially. Finely crushed tablets were suspended in vehicle for dosing. Orbital blood samples were obtained following a six-hour fast prior to the initial dose and also following the seventh dose.
Blood serum was assayed for total cholesterol and triglycerides (FIG. 5), lipoprotein cholesterol profiles (FIG. 6), VLDL plus LDL cholesterol combined (also referred to as apo B containing lipoprotein cholesterol or non-HDL cholesterol), HDL cholesterol, and the ratio of HDL cholesterol to that of VLDL plus LDL cholesterol (FIG. 7), serum glucose, and non-esterified fatty acids (FIG. 8), and percent weight gain (FIG. 9). […] In particular, Compound A caused a marked elevation in HDL cholesterol after one week of treatment. Using the serum total cholesterol values (FIG. 5A) and the lipoprotein cholesterol distribution (FIG. 6), the amount of cholesterol associated with non-HDL (i.e., VLDL plus LDL) and HDL were determined (FIG. 7). […] In contrast, troglitazone reduced non-HDL and HDL cholesterol by 67% and 4%, respectively.

obese female Zucker rats [2] = assay: Experiments B, C, D & E: serum lipids, glucose, insulin, body and liver weight in obese female Zucker rats treated for 14 days; assay type: in vivo, rat; details: Experiment C
Procedure: In a number of different experiments, illustrative compounds of the invention and troglitazone were administered daily at various doses to 10-week old chow fed obese female Zucker rats for 14 days in the morning by oral gavage in 1.5% carboxymethylcellulose/0.2% Tween-20 (dosing vehicle). Animals were weighed daily. Animals were allowed free access to rodent chow and water throughout the study. Blood glucose was determined after a 6-hour fast in the afternoon without anesthesia from a tail vein. Serum was also prepared from a blood sample subsequently obtained from the orbital venous plexus (with O2/CO2 anesthesia) prior to and after one week treatment and used lipid and insulin determinations. At two weeks, blood glucose was again determined after a 6-hour fast without anesthesia from a tail vein. Soon thereafter, animals were sacrificed by CO2 inhalation in the evening and cardiac blood serum was collected and assessed for various lipids and insulin. Body weight was determined daily prior to dosing and at the time of euthanasia.

[3] = system: LDL receptor deficient mice; assay: Lipoprotein cholesterol profile in LDL receptor-deficient mice; assay type: in vivo; details: 300 mg/kg/day; one week; chow-fed female mice
Source text: The effect of Compound A on LDL levels in a murine model of homozygous familial hypercholesterolemia (Ishibashi et al., 1993, J. Clin. Invest. 92:883–893; Ishibashi et al., 1994, J. Clin. Invest. 93:1885–1893) was studied. LDL receptor-deficient mice have elevated LDL cholesterol relative to wild type mice when fed a chow diet. When fed cholesterol-enriched diets, these mice develop atherosclerosis.

primary rat hepatocytes = assay: Synthesis of non-saponified and saponified lipids (14C-acetate incorporation) in hepatocytes; assay type: cell-based; details: 100 μM; 2 hr 14C-acetate labeling; vs no compound control
Procedure: A male Sprague-Dawley rat was anesthetized by administration of sodium pentobarbitol by intraparitoneal injection at 50 mg/kg. In situ perfusion of the liver was performed as follows. […] To digest the liver, DSC solution (6.7 mM KCl, 143 mM NaCl, 9.2 mM Na HEPES, 5 mM CaCl2—2H2O, 1.7 mM Fructose, 0.029 mM Phenol red, 0.2% BSA, 100 U/ml collagenase Type I, 93 U/ml Hyaluronidase, 160 BAEE/ml trypsin inhibitor, pH 7.5) was perfused through the liver at a flow rate of 30 ml/min for 6 minutes at a temperature of 37° C. After digestion, cells were dispersed in a solution of DMEM− (DMEM containing 2 mM GlutMax-1, 0.2% BSA, 5% FBS, 12 nM insulin, 1.2 μM hydrocortisone) to stop the digestion process. The crude cell suspension was filtered through three layers of stainless steel mesh with pore sizes of 250, 106, and 75 μm respectively. Filtered cells were centrifuged at 50×g for two minutes and the supernatant discarded. The resulting cell pellet was resuspended in DMEM and centrifuged again. This final cell pellet was resuspended in DMEM+HS solution (DMEM containing 2 mM GlutMax-1, 20 nM delta-aminolevulinic acid, 17.4 mM MEM non-essential amino acids, 20% FBS, 12 nM insulin, 1.2 μM hydrocortisone) and plated to form monolayer cultures at a density of 100×10^3 cells/cm^2 on collagen coated culture dishes. […]

CC(C)(CO)CCCCOCCCCC(C)(C)CO [Compound A, 6-(6-hydroxy-5,5-dimethylhexyloxy)-2,2-dimethyl-hexan-1-ol]
change in VLDL cholesterol (male Sprague-Dawley rats): no change
increase in body weight (obese female Zucker rats [1]; 86 mg/kg): 5.4%
glucose to insulin ratio (obese female Zucker rats [2]; 100 mg/kg): reduced
blood glucose (obese female Zucker rats [2]; 100 mg/kg, fasted): tendency to lower blood glucose
decline of glucose to insulin ratio (obese female Zucker rats [2]; 1 and 3 mg/kg, over two weeks (same as control)): ⅓ to ½
weight gain (obese female Zucker rats [2]; 10, 30 and 100 mg/kg, after one and two weeks): markedly reduced
glucose to insulin ratio (obese female Zucker rats [2]; 10 and 30 mg/kg): sustained at pretreatment levels
sharp rise in serum insulin (obese female Zucker rats [2]; higher doses (above 3 mg/kg)): largely curtailed or minimized
HDL [3]: HDL elevation
LDL cholesterol [3]: rapid and significant reduction

CC(C)(CCCOCCCC(C)(C)OP(=O)(OCc1ccccc1)OCc1ccccc1)OP(=O)(OCc1ccccc1)OCc1ccccc1 [Compound E, phosphoric acid dibenzyl ester 4-(4-(bis-benzyloxy-phosphoryloxy)-4-methyl-pentyloxy)-1,1-dimethyl-butyl ester]
rates of saponified fatty acid synthesis (primary rat hepatocytes): reduced

CC(C)(O)CCCCOCCCCC(C)(C)O [Compound F, 6-(5-hydroxy-5-methyl-hexyloxy)-2-methyl-hexan-2-ol]
rates of saponified fatty acid synthesis (primary rat hepatocytes): reduced

Cc1c(C)c2c(c(C)c1O)CCC(C)(COc1ccc(CC3SC(=O)NC3=O)cc1)O2 (stereo not drawn) [troglitazone, reference compound]
weight gain (obese female Zucker rats [1]; 120 mg/kg): +11.6%
weight gain (obese female Zucker rats [2]; after two weeks at 12, 40 and 120 mg/kg, after one week at 120 mg/kg): increased weight gain
percent liver to body weight (obese female Zucker rats [2]; after two weeks, doses 12, 40, 120 mg/kg (FIG. 16)): reduced at all doses
